“Also recorded” adds a separate entry of the source.

Results on one molecule are retold here after article PMC10547880, “Synthesis and biological evaluation of novel 1,2,3-triazole hybrids of cabotegravir: identification of potent antitumor activity against lung cancer” (Frontiers in Pharmacology, 2023).

Common to all, as to type: cell-based, Human
For data set [1], the system named is H460 cells. Nature of the data set: Cellular ROS measurement (DCFH-DA), H460. To be noted: H460, 5, 10 or 20 μM, 24 h. The procedure:
Cells with a density of 5 × 10^3 cells/well were cultured in a 96-well plate. The cells were treated with different concentrations (0, 5, 10, 20 μM) of compounds for 24 h. Then the medium was replaced with 10 μM DCFH-DA dissolved in culture medium and incubated for 30min at 37°C in dark. The fluorescent cells were observed and photographed using a fluorescent microscope.
Reactive oxygen species (ROS) levels were determined quantitatively using the probe 2′-7′-dichlorodihydrofluorescin diacetate (H2DCFDA) ([Kim and Xue, 2020]). Under normal condition, ROS participated in mitochondrial electron transport, signal transduction, gene expression, and enzyme reactions. But excess or deficiency of ROS levels can result in the development of diseases including cancers, diabetes, atherosclerosis, neurodegenerative diseases and others ([Wang et al., 2023]). ROS induction is associated with mitochondrial membrane damage, cell apoptosis, and ultimately cell death ([Dixon and Stockwell, 2014]). To evaluate the effect of compound 5i on ROS generation, H460 cells were treated with 5 μM, 10 μM or 20 μM of compound 5i for 24 h. […] DCFH-DA has no fluorescence and it can pass through cell membrane freely. […] This phenomenon can be attributed to the reduction in the number of live cells; however, the observed fluorescence appeared more intense (Figure 5).

The subject of data set [2] is LO2 cells. The experiment in a line: CCK8 cell viability, normal cell line LO2. The settings on record: LO2 normal liver cells, 25 μM, 72 h. The procedure: Human lung cancer cell line H460 and H1299, human liver normal cell line LO2 were bought from ATCC. DMEM or RPMI 1640 was used as the cell culture medium with 10% FBS and 1% penicillin/streptomycin. Cells were maintained in an incubator with 37°C humidified atmosphere and 5% CO2.
Cell viability and IC50 values were determined using the CCK8 assay kit. Cells were seeded at a density of 5 × 10^3 cells per well in a 96-well plate. After overnight adhesion, 25 μM of compounds or vehicle control DMSO which all dissolved in the culture medium were added to cells and cultured for 48 h or 72 h. CCK8 reagent, dissolved in the medium, was then added to cells and incubated for 1 h. The absorbance at 450 nm was measured using a microplate spectrophotometer (Thermo). Cell viability was calculated, with the untreated group taken as 100%. For IC50 values determination, different concentrations (0, 0.4 μM, 2 μM, 10 μM, 20 μM, 50 μM) of compounds were added to cells for 72 h. Subsequent CCK8 measurement allowed the calculation of inhibition percentage based on cell viability. The IC50 values were computed by the prism statistical software. The CCK-8 assay was conducted three times and the repetitions in each time were at least three. All the values were expressed as Mean ± SD, p < 0.05 was considered statistically significant.
In order to assess the potential cytotoxicity of the synthesized compounds, we selected two types of human non-small-cell lung cancer cell line, H460 and H1299. Cell viability and cytotoxicity were evaluated using the CCK8 assay ([Xu et al., 2018]). The cells were treated with 25 μM of compounds 5a-5s and 6a-6i for 48h and 72 h. […] In contrast, no compounds managed to reduce H1299 cell viability to less than 50%, yet compounds 5i, 5m, 6h and 6i achieved cell viability rates below 70%. […] It is worth noting that minimal effects on the cell viability of the normal cell line LO2 were observed when exposed to these compounds. Further, we determined the half-maximal inhibitory concentration (IC50) of selected compounds against H460 cells, the results of which were summarized in Table 3.

Data set [3] concerns H1299 cells. Nature of the data set: Western blot of protein expression, H1299. To be noted: H1299, 2, 4, 8 μM, 72 h. As for the experimental part:
Western blot was used to analyze protein expressions. Cells were cultured in 12-well plates and treated with different concentrations (0, 2, 4, 8 μM) of compounds for 72 h. Cell proteins were extracted using RIPA buffer with protease/phosphatase inhibitor cocktail (CST). 10%–15% sodium dodecyl sulfate polyacrylamide gel electrophoresis was used to separate proteins and nitrocellulose membranes (Millipore) was used to collected proteins. Antibodies used in western bolt were LC3 (3868s, CST), caspase 3 (9662s, CST), cyclin D (2922s, CST), cyclin E (20808s, CST), β-Catenin (9562s, CST), γH2AX (9718s, CST), PARP (46D11, CST), and β-actin (4967s, CST). Values were expressed as Mean ± SEM, p < 0.05 was considered statistically significant. Data were performed using Graph Prim 7.0.
Western blot analysis was performed to assess the protein expressions involved in cell growth and cell death processes. H460 and H1299 cells were treated with different concentrations of compound 5i, and whole cell proteins were collected for analysis. […] Autophagy has both tumor suppression and growth promotion effects in cancers, depending on the cellular context and cancer stage. On the one hand, autophagy inhibits cancer development via eliminating dysfunctional proteins and damaged mitochondria. On the other hand, autophagy can promote tumor growth by providing recycled metabolites to support cancer cell survival and growth ([Wang et al., 2023]). […] But in H1299 cells, compound 5i exerted its anticancer ability by suppressing cell division and proliferation.
Background: In western blotting, separated proteins are transferred to a membrane and probed.

In the case of `COc1c2n(cc(C(=O)Nc3cccc(-c4cn(-c5ccccc5OC(F)(F)F)nn4)c3)c1=O)CC1OCC(C)N1C2=O` (stereo not drawn) [Compound 5i], the ROS generation entry in data set [1] was “significant augmentation in ROS generation”. In data set [2], this molecule registered a Cell viability of 99.80%. In data set [3], the “Cyclin D level” value is “decrease”, the “Cyclin E level” value is given as “decrease”, the LC3 expression result is recorded as “no significant differences” and the PARP expression entry was “remained unaffected”. In addition, in data set [3], the “caspase3 expression” value is recorded as “no significant differences”, the β-catenin expression result is recorded as “remained unaltered” and the γ-H2AX expression result is recorded as “pronounced elevation; also recorded: increased expression”.
